Where two headings read alike, the source gives them in different places.
Key:
Type in all cases: cell-based
[1] = Cell viability measurement (MTS), Vero cells; details: monkey
Method: (§1) Experimental Example 3: Cell Viability Measurement
(§2) Vero cell line (VERO01WCB-1201, Ministry of Food and Drug Safety, Republic of Korea), Calu-3 cell line (KCLB #30055, Korea Cell Line Bank (KCLB), Republic of Korea), CellTiter 96® AQueous One Solution Cell Proliferation Assay kit (Promega, cat. #G3582), and Infinite M200 microplate reader (Tecan).
Vero cells were cultured at 37 °C and 5% CO2 in DMEM medium supplemented with 10% fetal bovine serum, 100 units/mL penicillin, and 100 μg/mL streptomycin.
(§3) Vero cells or Calu-3 cells were seeded in 96-well microplates and cultured for 24 hours until the cell confluency reached 20%. After the incubation, compounds were treated in DMSO at concentrations (1, 3, and 10 μM) to reach 0.5% v/v in each well, and reacted at 37 °C for 48 hours. Into each well of the incubated 96-well microplate, 3-(4,5-dimethylthiazol-2-yl)-5-(3-carboxymethoxyphenyl)-2-(4-sulfophenyl)-2H-tetrazolium salt (MTS) assay solution [CellTiter 96® AQueous One Solution Cell Proliferation Assay kit (Promega)] mixed with DMEM medium at a ratio of 1:5, was dispensed at 100 μL/well and incubated at 37 °C for 1 hour. The 490 nm and 690 nm absorbance was then measured using an Infinite M200 instrument.
(§4) The cell viability (also, referred to as cell survival rate) (%) by compound treatment was calculated using the following analysis method. The 690 nm background absorbance value was subtracted from the measured 490 nm absorbance value. Then, to obtain the cell viability of each test group, the viability of the DMSO-treated group that was not treated with the compound was set to 100% and then the relative viability 1 of each compound was calculated. Two to six repeated tests were performed to obtain the results, and the mean values of the results were categorized into the following ranges and shown in Table 5 below (A: 80% survived, B: 50-80% survived, N/A: not tested)

[2] = system: Severe Acute Respiratory Syndrome Coronavirus Type 2; experiment: microbe, parasite or virus in culture; details: Calu-3, 10 uM, read-out: Virus replication inhibition efficacy
[3] = Cell viability measurement (MTS), Calu-3 cells; details: human
Method: as §1, §2
Calu-3 cells were cultured at 37 °C and 5% CO2 in MEM medium supplemented with 10% fetal bovine serum, 2.2 g/L sodium bicarbonate, 1% 100 units/mL penicillin, and 100 μg/mL streptomycin.
as §3, §4

[4] = virus strain NCCP-43344, 48 hours
[5] = virus strain NCCP-43388, 48 hours

## FC(F)(F)c1ccc2nc(-c3cccc(Nc4ccc(-c5ccccc5)nn4)c3)[nH]c2c1 [Example 1, 6-phenyl-N-(3-(6-(trifluoromethyl)-1H-benzo[d]imidazol-2-yl)phenyl)pyridazin-3-amine]
[1]
  viability at 48 h, 1 µM: > 80%
  viability at 48 h, 3 µM: > 80%

## CC(C)(C)c1ccc2nc(-c3cccc(Nc4ccc(-c5ccccc5)nn4)c3)[nH]c2c1 [Example 3, N-[3-(6-tert-butyl-1H-benzo[d]imidazol-2-yl)phenyl]-6-phenylpyridazin-3-amine]
[1]
  viability at 48 h, 1 µM: > 80%
  viability at 48 h, 3 µM: 50 to 80%

## Fc1cc2nc(-c3cccc(Nc4ccc(-c5ccccc5)nn4)c3)[nH]c2cc1Br [Example 4, N-[3-(6-bromo-5-fluoro-1H-benzo[d]imidazol-2-yl)phenyl]-6-phenylpyridazin-3-amine]
[1]
  viability at 48 h, 1 µM: > 80%
  viability at 48 h, 3 µM: > 80%
  viability at 48 h, 10 µM: 50 to 80%

## FC(F)(F)Oc1ccc2nc(-c3cccc(Nc4ccc(-c5ccccc5)nn4)c3)[nH]c2c1 [Example 6, 6-phenyl-N-(3-(6-(trifluoromethoxy)-1H-benzo[d]imidazol-2-yl)phenyl)pyridazin-3-amine]
[1]
  viability at 48 h, 1 µM: > 80%
  viability at 48 h, 3 µM: 50 to 80%

## Clc1cc2nc(-c3cccc(Nc4ccc(-c5ccccc5)cn4)c3)[nH]c2cc1Cl [Example 13, N-[3-(5,6-dichloro-1H-benzo[d]imidazol-2-yl)phenyl]-5-phenylpyridin-2-amine]
[2]; [4]
  inhibition at 10 µM: > 60%
[1]
  viability at 48 h, 1 µM: > 80%
  viability at 48 h, 3 µM: > 80%
  viability at 48 h, 10 µM: 50 to 80%

## FC(F)(F)c1ccc2nc(-c3cccc(Nc4ncc(-c5ccccc5)cn4)c3)[nH]c2c1 [Example 14, 5-phenyl-N-(3-(6-(trifluoromethyl)-1H-benzo[d]imidazol-2-yl)phenyl)pyrimidin-2-amine]
[1]
  viability at 48 h, 1 µM: > 80%

## Fc1cccc(-c2ccc(Nc3cccc(-c4nc5ccc(C(F)(F)F)cc5[nH]4)c3)nc2)c1 [Example 18, 5-(3-fluorophenyl)-N-(3-(6-(trifluoromethyl)-1H-benzo[d]imidazol-2-yl)phenyl)pyridin-2-amine]
[1]
  viability at 48 h, 1 µM: > 80%
  viability at 48 h, 10 µM: 50 to 80%

## Fc1ccc2nc(-c3cccc(Nc4ccc(-c5cccnn5)cc4)c3)[nH]c2c1 [Example 25, 3-(6-fluoro-1H-benzo[d]imidazol-2-yl)-N-(4-(pyridazin-3-yl)phenyl)aniline]
[2]; [4]
  inhibition at 10 µM: > 60%
[1]
  viability at 48 h, 1 µM: > 80%
  viability at 48 h, 3 µM: > 80%
  viability at 48 h, 10 µM: > 80%

## FC(F)(F)c1ccc2nc(-c3cccc(Nc4ccc(-c5cnccn5)cc4)c3)[nH]c2c1 [Example 29, N-[4-(pyrazin-2-yl)phenyl]-3-[6-(trifluoromethyl)-1H-benzo[d]imidazol-2-yl]aniline]
[1]
  viability at 48 h, 1 µM: > 80%

## c1cc(Nc2ccc(-c3cncnc3)cc2)cc(-c2nc3ccccc3[nH]2)c1 [Example 30, 3-(1H-benzo[d]imidazol-2-yl)-N-(4-(pyrimidin-5-yl)phenyl)aniline]
[2]; [5]
  inhibition at 10 µM: > 60%
[3]
  viability at 48 h, 1 µM: 50 to 80%
[1]
  viability at 48 h, 1 µM: > 80%
  viability at 48 h, 3 µM: 50 to 80%

## c1cncc(-c2ccc(Nc3cccc(-c4nc5ccccc5[nH]4)c3)cc2)c1 [Example 31, N-[3-(1H-benzo[d]imidazol-2-yl)phenyl]-4-(pyridin-3-yl)aniline]
[3]
  viability at 48 h, 1 µM: 50 to 80%
[1]
  viability at 48 h, 1 µM: > 80%
  viability at 48 h, 10 µM: 50 to 80%

## c1cc(Nc2ccc(-c3cnccn3)cc2)cc(-c2nc3ccccc3[nH]2)c1 [Example 32, 3-(1H-benzo[d]imidazol-2-yl)-N-(4-(pyrazin-2-yl)phenyl)aniline]
[2]; [5]
  inhibition at 10 µM: > 60%
[3]
  viability at 48 h, 1 µM: > 80%
  viability at 48 h, 3 µM: 50 to 80%
[1]
  viability at 48 h, 1 µM: > 80%
  viability at 48 h, 3 µM: > 80%
  viability at 48 h, 10 µM: 50 to 80%

## Cc1cscc1-c1cnc(Nc2cccc(-c3nc4ccccc4[nH]3)c2)nc1 [Example 43, N-(3-(1H-benzo[d]imidazol-2-yl)phenyl)-5-(4-methylthiophen-3-yl)pyrimidin-2-amine]
[3]
  viability at 48 h, 1 µM: > 80%
  viability at 48 h, 3 µM: 50 to 80%
[1]
  viability at 48 h, 1 µM: > 80%
  viability at 48 h, 10 µM: > 80%

## c1ccc(-c2cnc(Nc3cccc(-c4nc5ccccc5[nH]4)c3)nc2)nc1 [Example 44, N-(3-(1H-benzo[d]imidazol-2-yl)phenyl)-5-(pyridin-2-yl)pyrimidin-2-amine]
[2]; [5]
  inhibition at 10 µM: > 60%
[3]
  viability at 48 h, 1 µM: > 80%
  viability at 48 h, 3 µM: 50 to 80%

## Fc1ccc2nc(-c3cccc(Nc4ncc(-c5ccccn5)cn4)c3)[nH]c2c1 [Example 45, N-[3-(6-fluoro-1H-benzo[d]imidazol-2-yl)phenyl]-5-(pyridin-2-yl)pyrimidin-2-amine]
[2]; [5]
  inhibition at 10 µM: 30 to 60%
[3]
  viability at 48 h, 1 µM: 50 to 80%
[1]
  viability at 48 h, 3 µM: > 80%
  viability at 48 h, 10 µM: 50 to 80%

## FC(F)(F)c1ccc2nc(-c3cccc(Nc4ncc(-c5cccnn5)cn4)c3)[nH]c2c1 [Example 52, 5-(pyridazin-3-yl)-N-(3-(6-(trifluoromethyl)-1H-benzo[d]imidazol-2-yl)phenyl)pyrimidin-2-amine]
[3]
  viability at 48 h, 1 µM: 50 to 80%
  viability at 48 h, 3 µM: 50 to 80%
  viability at 48 h, 10 µM: 50 to 80%
[1]
  viability at 48 h, 1 µM: > 80%
  viability at 48 h, 3 µM: > 80%
  viability at 48 h, 10 µM: > 80%

## Fc1ccc2nc(-c3cccc(Nc4ccc(-c5cccnn5)cn4)c3)[nH]c2c1 [Example 55]
[1]
  viability at 48 h, 1 µM: > 80%
  viability at 48 h, 10 µM: 50 to 80%

## c1cc(Nc2ccc(-c3cccnn3)cn2)cc(-c2nc3ccccc3[nH]2)c1 [Example 56, N-[3-(1H-benzo[d]imidazol-2-yl)phenyl]-5-(pyridazin-3-yl)pyridin-2-amine]
[3]
  viability at 48 h, 1 µM: > 80%
  viability at 48 h, 3 µM: 50 to 80%
[1]
  viability at 48 h, 1 µM: > 80%
  viability at 48 h, 10 µM: > 80%

## FC(F)(F)c1ccc2nc(-c3cccc(Nc4ccc(-c5ccccn5)cn4)c3)[nH]c2c1 [Example 57, N-{3-[6-(trifluoromethyl)-1H-benzo[d]imidazol-2-yl]phenyl}-[2,3′-bipyridin]-6′-amine]
[3]
  viability at 48 h, 1 µM: 50 to 80%
[1]
  viability at 48 h, 1 µM: > 80%
  viability at 48 h, 3 µM: > 80%
  viability at 48 h, 10 µM: 50 to 80%

## Fc1ccc2nc(-c3cccc(Nc4ccc(-c5ccccn5)cn4)c3)[nH]c2c1 [Example 58, N-(3-(6-fluoro-1H-benzo[d]imidazol-2-yl)phenyl)-[2,3′-bipyridine]-6′-amine]
[3]
  viability at 48 h, 1 µM: 50 to 80%
[1]
  viability at 48 h, 1 µM: > 80%
  viability at 48 h, 3 µM: > 80%

## c1ccc(-c2ccc(Nc3cccc(-c4nc5ccccc5[nH]4)c3)nc2)nc1 [Example 59, N-[3-(1H-benzo[d]imidazol-2-yl)phenyl]-[2,3′-bipyridin]-6′-amine]
[3]
  viability at 48 h, 1 µM: > 80%
  viability at 48 h, 3 µM: 50 to 80%
[1]
  viability at 48 h, 1 µM: > 80%

## COC(=O)c1ccc2nc(-c3cccc(Nc4ccc(-c5cccnn5)cc4)c3)[nH]c2c1 [Example 61, methyl 2-(3-((4-(pyridazin-3-yl)phenyl)amino)phenyl)-1H-benzo[d]imidazol-6-carboxylate]
[1]
  viability at 48 h, 1 µM: > 80%

## Fc1ccc2nc(-c3cccc(Nc4ccc(-c5ccncn5)cn4)c3)[nH]c2c1 [Example 72, N-(3-(6-fluoro-1H-benzo[d]imidazol-2-yl)phenyl)-5-(pyrimidin-4-yl)pyridin-2-amine]
[1]
  viability at 48 h, 3 µM: > 80%

## Fc1cc2nc(-c3cccc(Nc4cnc(-c5ccccn5)cn4)c3)[nH]c2cc1F [Example 298, N-(3-(5,6-difluoro-1H-benzo[d]imidazol-2-yl)phenyl)-5-(pyridin-2-yl)pyrazin-2-amine]
[2]; [5]
  inhibition at 10 µM: 30 to 60%

## FC(F)Oc1ccc2nc(-c3cccc(Nc4cnc(-c5ccccn5)cn4)c3)[nH]c2c1 [Example 300, N-(3-(6-(difluoromethoxy)-1H-benzo[d]imidazol-2-yl)phenyl)-5-(pyridin-2-yl) pyrazin-2-amine]
[3]
  viability at 48 h, 10 µM: > 80%

## Clc1cc2[nH]c(-c3cccc(Nc4cnc(-c5ccccn5)cn4)c3)nc2cn1 [Example 301, N-(3-(6-chloro-1H-imidazo[4,5-c]pyridin-2-yl)phenyl)-5-(pyridin-2-yl)pyrazin-2-amine]
[3]
  viability at 48 h, 10 µM: > 80%

## Clc1cc2[nH]c(-c3cccc(Nc4ncc(-c5cscn5)cn4)c3)nc2cn1 [Example 303, N-(3-(6-chloro-1H-imidazo[4,5-c]pyridin-2-yl)phenyl)-5-(thiazol-4-yl)pyrimidin-2-amine]
[3]
  viability at 48 h, 10 µM: 50 to 80%

— US20260364068A1, “ANTIVIRAL USE OF HETEROARYL DERIVATIVE COMPOUND” (UIF (University Industry Foundation), Yonsei University, priority 2022, published 2026)
